Data published in article PMC4814262 (Cancer Science, 2016).

Target: LAT1 (Homo sapiens, UniProt Q01650)
Experiment: radiolabelled uptake in Xenopus oocytes
Type: cell-based
Settings: Na+-free uptake buffer (choline-Cl), pH 7.5, room temperature, 15 min; labelled compound

Sequence of LAT1 (Q01650 whole entry): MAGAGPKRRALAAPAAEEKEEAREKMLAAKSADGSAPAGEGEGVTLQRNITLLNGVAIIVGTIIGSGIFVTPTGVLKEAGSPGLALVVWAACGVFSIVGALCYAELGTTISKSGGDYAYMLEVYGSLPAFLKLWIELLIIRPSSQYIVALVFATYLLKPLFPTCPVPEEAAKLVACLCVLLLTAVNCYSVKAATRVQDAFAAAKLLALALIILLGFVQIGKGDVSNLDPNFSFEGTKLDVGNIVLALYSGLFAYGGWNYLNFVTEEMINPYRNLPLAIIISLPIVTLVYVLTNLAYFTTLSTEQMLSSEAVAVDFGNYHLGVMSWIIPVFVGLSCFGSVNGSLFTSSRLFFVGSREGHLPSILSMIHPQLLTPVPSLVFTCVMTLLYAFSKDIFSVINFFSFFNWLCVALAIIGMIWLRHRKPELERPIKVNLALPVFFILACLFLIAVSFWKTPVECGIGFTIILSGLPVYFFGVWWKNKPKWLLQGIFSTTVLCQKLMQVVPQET
Sequence of LAT1 (P08195 103-630 partner): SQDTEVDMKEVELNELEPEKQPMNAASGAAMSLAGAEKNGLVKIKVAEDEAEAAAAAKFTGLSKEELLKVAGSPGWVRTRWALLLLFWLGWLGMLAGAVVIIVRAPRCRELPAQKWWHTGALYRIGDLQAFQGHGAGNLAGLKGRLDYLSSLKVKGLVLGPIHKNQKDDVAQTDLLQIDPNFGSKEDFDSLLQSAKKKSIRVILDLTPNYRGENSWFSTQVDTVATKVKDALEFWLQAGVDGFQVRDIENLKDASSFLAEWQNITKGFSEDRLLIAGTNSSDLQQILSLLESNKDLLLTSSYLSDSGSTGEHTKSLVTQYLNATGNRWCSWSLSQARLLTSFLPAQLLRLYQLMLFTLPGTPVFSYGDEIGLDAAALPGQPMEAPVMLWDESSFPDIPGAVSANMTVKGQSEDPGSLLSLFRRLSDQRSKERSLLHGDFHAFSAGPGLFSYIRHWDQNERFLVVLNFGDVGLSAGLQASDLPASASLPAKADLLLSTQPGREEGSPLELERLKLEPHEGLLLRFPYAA

`C[C@](N)(Cc1ccc(O)c(F)c1)C(=O)O` [FAMT, 3‐fluoro‐L‐α‐methyl[carboxyl‐^14C]tyrosine] showed a Km of 72.7 ± 11 µM.
